Experimental data as given in patent US6593311B2, “Apoptosis inducers” (Takara Shuzo Co., Ltd., priority 1996, dated 2003).
Numbered stars: 1 amine (or outer) side, 2 acyl side, 3 side chain; on linkers, the order of the positions; unused ones are H or OH. Bridge positions count the residues as written; N and C are the ends. Square brackets hold non-standard residues; d marks the D form. Peptide text beside a SMILES is read from it. I, II: the chains in the order shown. Actinocin(9to1) = Cc1c2oc3c(C)ccc(C(=O)[*:1])c3nc-2c(C(=O)[*:2])c(N)c1=O; NMeV = CN[C@H](C(=O)O)C(C)C; Sar = CNCC(=O)O

Tests used:
[1] = test system: Human colonic cancer cells HCT 116; assay: Viable count (Trypan Blue) and morphology of HCT 116 cells; assay type: cell-based; conditions: Example 28; for cell morphology (characteristics of apoptosis) / change in cell count / viable count versus incubation time curve (FIG. 29): 0.5 mg/ml, autoclaved; for change in cell count / viable count versus incubation time curve (FIG. 29): 1 to 4 days; for effects of inducing apoptosis, filter-treated samples: 5 mg/ml solutions in PBS treated with a filter
Method: Then the suspension was pipetted into a 24-well plate (mfd. by FALCON) at a ratio of 1.8 ml/well. […] As a control, PBS alone was added in the same amount and incubation was effected in the same manner. 1, 2, 3 and 4 days after the initiation of the incubation, the viable cells were counted in accordance with the method described in “Soshiki Baiyo no Gijutsu” (second ed.), Asakura Shuppan, ed. by Nippon Soshiki Baiyo Gakkai, 26-28 (1990), namely, by the Trypan Blue staining method on a counting chamber.
In this figure, the abscissa refers to the incubation time (day) while the ordinate refers to the viable count (×10^4 cells /2 ml) in the culture medium. In FIG. 29, the open circle stands for the control (no addition), the solid circle stands for the sulfated-fucose-containing polysaccharide preparation obtained in Example 1 and the solid square stands for the sulfated-fucose-containing polysaccharide mixture obtained in Example 1.
Then the suspension was pipetted into a 24-well plate (mfd. by FALCON) at a ratio of 1.8 ml/well. […] As a control, PBS alone was added in the same amount and incubation was effected in the same manner. After the initiation of the incubation, the viable cells were counted with the passage of time in accordance with the method described in “Soshiki Baiyo no Gijutsu” (second ed.), Asakura Shuppan, ed. by Nippon Soshiki Baiyo Gakkai, 26-28 (1990), namely, by the Trypan Blue staining method on a counting chamber.

[2] = test system: Human acute lymphatic leukemia cells MOLT-3; assay: Viable count (Trypan Blue) of MOLT-3 cells; assay type: cell-based; conditions: Example 24
Method: Then the suspension was pipetted into a 24-well plate (mfd. by FALCON) at a ratio of 1.8 ml/well. […] As a control, PBS alone was added in the same amount and incubation was effected in the same manner. 2, 4, 6 and 8 days after the initiation of the incubation, the cells were counted by the Trypan Blue staining method.
In this figure, the abscissa refers to the incubation time (day) while the ordinate refers to the viable count (×10^4 cells /2 ml) in the culture medium. In FIG. 28, the open circle stands for the control (no addition), the solid circle stands for the sulfated-fucose-containing polysaccharide-F obtained in Example 12, the open square stands for the sulfated-fucose-containing polysaccharide obtained in Example 1, the open triangle stands for that obtained in Example 17 and the solid square stands for that obtained in Example 15.

[3] = test system: Human premyelocytic leukemia cells HL-60; assay: DNA ladder detection by agarose gel electrophoresis in HL-60 cells
[4] = test system: Human acute lymphatic leukemia cells MOLT-3; assay: DNA ladder detection by agarose gel electrophoresis in MOLT-3 cells; conditions: Example 23; 10 μg/ml solution of actinomycin D; 20 hours
[5] = test system: Human premyelocytic leukemia cells HL-60; assay: Viable count (Trypan Blue) and microscopic morphology of HL-60 cells; assay type: cell-based; conditions: Example 25; 10 μg/ml solution of actinomycin D; 20 hours

| Molecule | cell morphology (characteristics of apoptosis) [1] | change in cell count [1] | viable count versus incubation time curve (FIG. 29) [1] | effects of inducing apoptosis, filter-treated samples [1] | effects of inducing apoptosis, autoclaved samples ([2]; 0.5 mg/ml in PBS, autoclave 121° C. 20 minutes) | apoptosis induction and growth inhibition (viable count, FIG. 28) ([2]; 0.2 ml of 0.5 mg/ml solution per 1.8 ml well (text: concentration of 0.5 mg/ml), 2, 4, 6 and 8 days) | viable count versus incubation time curve (FIG. 28) ([2]; 2 to 8 days) | DNA ladders ([3]; Example 20, 10 μg/ml solution of actinomycin D, 20 hours) | DNA ladders ([3]; Example 35, Actinomycin D as substitute for F-Fd-4) | DNA ladders [4] | cell morphology (shrinkage and fragmentation) [5] |
| --- | --- | --- | --- | --- | --- | --- | --- | --- | --- | --- | --- |
| heparin | showed characteristics of apoptosis such as the shrinkage and fragmentation of the cells | little increase or a decrease in cell count | substantially the same curve as the one of the sulfated-fucose-containing polysaccharide preparation of Example 1 | the same results were obtained |  |  |  |  |  |  |  |
| dextran sulfate | showed characteristics of apoptosis such as the shrinkage and fragmentation of the cells | little increase or a decrease in cell count | substantially the same curve as the one of the sulfated-fucose-containing polysaccharide preparation of Example 1 | the same results were obtained | the same results were obtained | induce the apoptosis of the MOLT-3 cells and considerably inhibit the growth of these cells | substantially the same curve as the one obtained by using the sulfated-fucose-containing polysaccharide of Example 15 |  |  |  |  |
| Cc1c2oc3c(C)ccc(C(=O)N[C@@H]4C(=O)N[C@H](C(C)C)C(=O)N5CCC[C@H]5C(=O)N(C)CC(=O)N(C)[C@@H](C(C)C)C(=O)O[C@@H]4C)c3nc-2c(C(=O)N[C@@H]2C(=O)N[C@H](C(C)C)C(=O)N3CCC[C@H]3C(=O)N(C)CC(=O)N(C)[C@@H](C(C)C)C(=O)O[C@@H]2C)c(N)c1=O [actinomycin D] (I: T[dV]P[Sar][NMeV] / II: T[dV]P[Sar][NMeV]; ester I:1-I:C, II:1-II:C; linker I:N-II:N via Actinocin(9to1)) |  |  |  |  |  |  |  | DNA ladders were observed | DNA ladders were observed | DNA ladders were observed | the shrinkage and fragmentation of the cells were observed |
